Entries after “also recorded” stand apart in the source; their conditions may differ.
What was measured:
TLR1/2 = target: T1, TLR1/2 (Mus musculus, UniProt Q9EPQ1+Q9QUN7); assay: TNF-α secretion ELISA after Pam3CSK4 in RAW 264.7 cells; format: cell-based
T1 construct: endogenous in cells; host or cells: RAW 264.7
Experimental: (§1) In order to determine the inhibitory activities of the test-ligand, RAW 264.7 cells were pretreated with each candidate compound for 1 hour, then treated with Pam3CSK4 (synthetic triacyl lipopeptide; TLR1/2, Invitrogen), FSL-1 (synthetic diacyl lipoprotein, TLR2/6, 100 ng/ml), lipopolysaccharide (LPS, TLR4, Sigma Aldrich), imiquimod (IMQ, TLR7, Invitrogen), and ODN2395 (type C CpG repeat motif DNA oligo(5′-[…]-3), TLR9, Bioneer) ligand for 4 hours, and treated with poly I:C (I:C repeat motif double-stranded RNA, TLR3, Invitrogen) and TL8-506 (TLR8, Invitrogen) showing delayed reactivity for 24 hours. After activation of TLR, the supernatant was diluted in an appropriate ratio so as to measure within the standard dose range, transferred to a pre-coated 96-well assay plate, and then treated with mouse TNF-alpha secretion level in accordance with the manufacturer's instructions using a mouse-TNF-alpha ELISA-kit (Invitrogen).
(§2) In order to determine the inhibitory activities of SK41, SK50, SK58 and SK64 on various TLR signaling pathways, RAW 264.7 cells were cultured along with each compound and then stimulated with different TLR agonists. The TLR agonists used herein were Pam3CSK4 (TLR1/2), FSL-1 (TLR2/6), LPS (TLR4) and FLA-ST (TLR5) as cell surface TLRs, and poly I:C (TLR3) and TL8-506 (TLR8) as endosomal TLRs.

TLR2/6 = target: T2, TLR2/6 (Mus musculus, UniProt Q9EPW9+Q9QUN7); assay: TNF-α secretion ELISA after FSL-1 in RAW 264.7 cells; format: cell-based
T2 construct: endogenous in cells; host or cells: RAW 264.7
Experimental: as §1, §2

TLR4 = target: T3, TLR4 (Mus musculus, UniProt Q9QUK6); assay: TNF-α secretion ELISA after LPS in RAW 264.7 cells; format: cell-based
T3 construct: endogenous in cells; host or cells: RAW 264.7
T3 sequence (Q9QUK6 26-835): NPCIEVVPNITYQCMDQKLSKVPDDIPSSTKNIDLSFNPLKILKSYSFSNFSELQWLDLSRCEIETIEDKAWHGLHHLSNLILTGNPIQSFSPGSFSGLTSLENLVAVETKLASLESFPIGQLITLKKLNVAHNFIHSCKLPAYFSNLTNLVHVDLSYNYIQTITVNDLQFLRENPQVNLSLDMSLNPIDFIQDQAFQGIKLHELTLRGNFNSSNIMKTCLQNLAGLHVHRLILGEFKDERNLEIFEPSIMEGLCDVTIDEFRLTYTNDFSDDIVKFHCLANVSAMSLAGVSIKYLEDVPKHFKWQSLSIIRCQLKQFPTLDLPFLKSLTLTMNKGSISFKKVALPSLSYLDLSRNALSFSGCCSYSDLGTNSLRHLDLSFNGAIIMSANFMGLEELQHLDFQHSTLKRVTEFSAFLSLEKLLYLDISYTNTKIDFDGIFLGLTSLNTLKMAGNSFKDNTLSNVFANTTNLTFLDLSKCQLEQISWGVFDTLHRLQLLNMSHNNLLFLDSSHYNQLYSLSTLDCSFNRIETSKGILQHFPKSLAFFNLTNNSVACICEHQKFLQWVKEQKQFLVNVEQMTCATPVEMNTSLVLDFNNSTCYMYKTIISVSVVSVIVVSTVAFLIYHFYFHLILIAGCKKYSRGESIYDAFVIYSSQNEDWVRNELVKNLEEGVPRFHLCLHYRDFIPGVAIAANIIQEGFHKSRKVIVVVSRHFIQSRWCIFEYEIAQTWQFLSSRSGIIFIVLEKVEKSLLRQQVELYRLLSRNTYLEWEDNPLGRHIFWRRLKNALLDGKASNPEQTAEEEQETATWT
T3 sequence (Q9JHF9 19-160 partner): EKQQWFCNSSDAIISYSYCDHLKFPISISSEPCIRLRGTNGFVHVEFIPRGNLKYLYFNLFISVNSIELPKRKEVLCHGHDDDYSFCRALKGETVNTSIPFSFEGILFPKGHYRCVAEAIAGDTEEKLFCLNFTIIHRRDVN
Experimental: as §1, §2

[1] = system: MRL/lpr (MRL/Fas^lpr) mice; assay: MRL/lpr systemic lupus erythematosus mouse model, oral administration; format: in vivo; conditions: for change in body weight (index for long-term administration toxicity): daily oral, monitored at 3-day intervals; for antinuclear antibody (ANA) in blood plasma / C3 complement in blood plasma: end of experiment, ELISA, vs vehicle and HCQ 60 mg/Kg; for antinuclear antibody (ANA) in blood plasma: reaches normal as it decreases; for C3 complement in blood plasma: reaches normal as it increases; for visual (apparent) healing effect: oral once a day for 4 weeks, 15 mg/Kg for SK series and HCQ; for visual therapeutic effects: oral once a day, SK series 30 mg/Kg, HCQ 60 mg/Kg
Experimental: 14-weeks-old, 36-40 g, female MRL/lpr (or MRL/Fas^lpr) mice (purchased from the Jackson Laboratory, USA through Orient Bio) were used for the lupus treatment effect experiment and breeding was performed in accordance with the breeding and ethics regulations of the Laboratory Animal Research Center of the Ajou University Medical Center. Prior to the experiment, 4 to 5 animals were randomly assigned to each of a negative control group (Vehicle), a positive control group (HCQ), and an experimental compound group (SK41, SK50, SK58 and SK64) for blinding, and each of SK41, SK50, SK58, and SK64 compounds was completely dissolved in a vehicle consisting of ethanol (ethyl alcohol) 10%, polyethylene glycol 400 40% and sterile distilled water 50%, and then the solution was orally administered to experimental animals.
As for the administration method, only the same amount of vehicle was administered to the negative control group, 15-60 MPK (15-60 mg/Kg) of HCQ was administered daily to the positive control group, and SK41, SK50, SK58 and SK64 was administered daily in an amount of 15-30 MPK (15-30 mg/Kg) to the experimental compound group, […] experimental mice were 14 weeks old.
As for the sample collection method, the weight of the experimental mice was measured at 3-day intervals, and the mice were subjected to inhalational anesthesia and euthanasia using IFRAN liquid (Hana Pharmaceutical, Korea; ingredient name: Isoflurane) on the day of expiry of 40 days, and then blood, kidney, spleen and axillary lymph nodes and inguinal lymph nodes were collected therefrom.
Blood samples were collected from the heart of an anesthetized mouse, the serum was extracted therefrom using a serum separation tube and a centrifuge (4,000 rpm, 10 minutes, 4° C.), and blood concentrations of ANA (anti-nuclear Antibody, MyBioSourse, USA) as a lupus severity indicator molecule and C3 complement (MyBioSourse, USA), a comprehensive inflammatory indicator molecule, were measured through enzyme-linked immunosorbent assay (ELISA).
Organs were treated with an RNA stabilization agent (RNA Stabilization Reagent, Germany, QUIAGEN) immediately after extraction to preserve the condition and prepare specimens, the organs were imaged and weighed to determine whether or not the organs are damaged and to measure the degree of immune organ hypertrophy, and the sum of the weights of one pair of axillary lymph nodes and one pair of inguinal lymph nodes was recorded as the weight of the lymph nodes.

[2] = after administration for 40 days, 30 mg/Kg

T1 sequence (Q9EPQ1 26-795): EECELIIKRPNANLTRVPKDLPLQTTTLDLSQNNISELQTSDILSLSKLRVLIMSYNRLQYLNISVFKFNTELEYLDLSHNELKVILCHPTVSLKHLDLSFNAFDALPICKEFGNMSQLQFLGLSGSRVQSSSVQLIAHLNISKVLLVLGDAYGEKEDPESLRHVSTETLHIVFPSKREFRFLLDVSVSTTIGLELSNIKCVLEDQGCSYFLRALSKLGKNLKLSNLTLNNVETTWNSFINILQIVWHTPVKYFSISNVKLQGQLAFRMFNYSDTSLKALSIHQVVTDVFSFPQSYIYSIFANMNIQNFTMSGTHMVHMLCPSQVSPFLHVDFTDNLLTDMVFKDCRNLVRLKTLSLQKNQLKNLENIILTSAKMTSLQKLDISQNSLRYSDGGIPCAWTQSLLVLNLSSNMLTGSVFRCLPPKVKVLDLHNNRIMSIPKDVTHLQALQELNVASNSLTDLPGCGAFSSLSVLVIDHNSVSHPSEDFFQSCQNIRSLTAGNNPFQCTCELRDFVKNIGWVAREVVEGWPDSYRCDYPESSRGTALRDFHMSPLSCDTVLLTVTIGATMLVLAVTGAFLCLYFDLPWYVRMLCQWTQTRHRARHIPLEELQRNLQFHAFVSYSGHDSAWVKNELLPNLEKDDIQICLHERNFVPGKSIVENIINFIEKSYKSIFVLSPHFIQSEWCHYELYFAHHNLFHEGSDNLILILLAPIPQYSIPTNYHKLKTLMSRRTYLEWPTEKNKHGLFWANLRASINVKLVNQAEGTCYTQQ
T1 sequence (Q9QUN7 25-784): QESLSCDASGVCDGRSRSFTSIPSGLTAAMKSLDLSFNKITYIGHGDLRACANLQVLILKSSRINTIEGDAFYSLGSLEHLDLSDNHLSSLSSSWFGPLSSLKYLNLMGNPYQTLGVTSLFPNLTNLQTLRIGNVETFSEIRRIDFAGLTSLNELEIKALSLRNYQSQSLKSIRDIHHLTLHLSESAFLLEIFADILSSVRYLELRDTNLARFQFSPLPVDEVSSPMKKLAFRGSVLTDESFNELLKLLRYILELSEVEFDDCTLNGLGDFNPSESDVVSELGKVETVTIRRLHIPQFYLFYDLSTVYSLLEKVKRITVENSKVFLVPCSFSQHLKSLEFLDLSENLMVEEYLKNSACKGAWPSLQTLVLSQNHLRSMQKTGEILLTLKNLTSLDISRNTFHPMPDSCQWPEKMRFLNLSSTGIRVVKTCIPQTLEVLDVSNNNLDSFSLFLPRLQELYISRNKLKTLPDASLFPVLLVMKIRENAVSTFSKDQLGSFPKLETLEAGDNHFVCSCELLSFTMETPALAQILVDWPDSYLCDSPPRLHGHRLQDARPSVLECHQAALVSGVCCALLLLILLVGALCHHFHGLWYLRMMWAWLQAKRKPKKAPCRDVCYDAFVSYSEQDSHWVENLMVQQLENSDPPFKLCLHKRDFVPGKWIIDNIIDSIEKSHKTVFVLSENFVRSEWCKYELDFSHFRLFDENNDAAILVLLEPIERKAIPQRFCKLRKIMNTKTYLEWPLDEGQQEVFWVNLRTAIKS
T2 sequence (Q9QUN7 25-784): as above
T2 sequence (Q9EPW9 28-795): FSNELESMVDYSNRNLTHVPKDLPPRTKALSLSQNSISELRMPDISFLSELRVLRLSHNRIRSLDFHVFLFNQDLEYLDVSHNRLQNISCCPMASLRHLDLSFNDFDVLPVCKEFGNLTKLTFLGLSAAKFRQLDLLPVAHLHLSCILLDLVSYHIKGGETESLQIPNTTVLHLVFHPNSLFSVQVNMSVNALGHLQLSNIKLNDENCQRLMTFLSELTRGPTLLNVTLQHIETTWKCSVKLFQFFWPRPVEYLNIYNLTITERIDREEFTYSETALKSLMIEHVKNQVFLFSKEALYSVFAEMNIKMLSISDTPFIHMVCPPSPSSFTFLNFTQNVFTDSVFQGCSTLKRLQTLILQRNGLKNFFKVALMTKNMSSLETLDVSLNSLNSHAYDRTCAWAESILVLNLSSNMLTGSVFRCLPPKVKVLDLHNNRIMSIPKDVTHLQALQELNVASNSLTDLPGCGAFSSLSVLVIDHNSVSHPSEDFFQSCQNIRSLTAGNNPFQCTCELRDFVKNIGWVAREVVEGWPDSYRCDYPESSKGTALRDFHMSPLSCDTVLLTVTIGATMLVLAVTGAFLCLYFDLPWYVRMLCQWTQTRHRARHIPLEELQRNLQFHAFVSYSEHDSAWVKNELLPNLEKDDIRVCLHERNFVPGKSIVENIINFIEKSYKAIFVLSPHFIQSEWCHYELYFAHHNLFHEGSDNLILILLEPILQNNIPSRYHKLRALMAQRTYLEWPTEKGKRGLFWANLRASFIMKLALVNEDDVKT

Structure (SMILES) | inhibitory activity against cell surface TLR1/2 (TNF-α secretion) (TLR1/2) | inhibitory activity against cell surface TLR2/6 (TNF-α secretion) (TLR2/6) | inhibitory activity against cell surface TLR4 (TNF-α secretion) (TLR4) | appearance of the lymph nodes [1, 2] | change in body weight (index for long-term administration toxicity) [1] | antinuclear antibody (ANA) in blood plasma [1] | C3 complement in blood plasma [1] | visual (apparent) healing effect [1] | visual therapeutic effects [1] | weight of the lymph node [1, 2] | weight of the spleen [1, 2]
Cc1cc2c(N)c3c(nc2n1CCCN(C)C)CCCCCC3 [SK41, 1-(3-(dimethylamino)propyl)-2-methyl-5,6,7,8,9,10-hexahydro-1H-cycloocta[b]pyrrolo[3,2-e]pyridin-4-amine] | did not exhibit a specific inhibitory activity; also recorded: no inhibitory activities | did not exhibit a specific inhibitory activity; also recorded: no inhibitory activities | did not exhibit a specific inhibitory activity; also recorded: no inhibitory activities | small inguinal lymph node sizes | did not exhibit a change in body weight | significant results | significant results | superior visual (apparent) healing effect to that of HCQ | superior to HCQ | – | –
COc1ccc2c(c1)c1c(N)c3c(nc1n2CCCN(C)C)CCCC3 [SK50, 6-(3-(dimethylamino)propyl)-9-methoxy-2,3,4,6-tetrahydro-1H-indolo[2,3-b]quinolin-11-amine] | did not exhibit a specific inhibitory activity; also recorded: no inhibitory activities | did not exhibit a specific inhibitory activity; also recorded: no inhibitory activities | did not exhibit a specific inhibitory activity; also recorded: no inhibitory activities | – | did not exhibit a change in body weight | – | – | – | – | – | –
Cc1ccc2c(c1)c1c(N)c3c(nc1n2CCCN(C)C)CCCC3 [SK58, 6-(3-(dimethylamino)propyl)-9-methyl-2,3,4,6-tetrahydro-1H-indolo[2,3-b]quinolin-11-amine] | did not exhibit a specific inhibitory activity; also recorded: no inhibitory activities | did not exhibit a specific inhibitory activity; also recorded: no inhibitory activities | did not exhibit a specific inhibitory activity; also recorded: no inhibitory activities | relatively good | did not exhibit a change in body weight | significant results; also recorded: low antinuclear antibody | significant results; also recorded: high C3 complement | superior visual (apparent) healing effect to that of HCQ | superior to HCQ | relatively less swollen | relatively less swollen
COC(=O)c1ccc2c(c1)c1c(N)c3c(nc1n2CCCN(C)C)CCCC3 [SK64, Methyl 11-amino-6-(3-(dimethylamino)propyl)-2,3,4,6-tetrahydro-1H-indolo[2,3-b]quinolin-9-carboxylate] | did not exhibit a specific inhibitory activity; also recorded: no inhibitory activities | did not exhibit a specific inhibitory activity; also recorded: no inhibitory activities | did not exhibit a specific inhibitory activity; also recorded: no inhibitory activities | – | did not exhibit a change in body weight | – | – | – | superior to HCQ | – | –

— US12516058B2, “Small-molecule compounds for controlling endosomal toll-like receptors and therapeutic agent for autoimmune diseases using same” (priority 2020, dated 2026)
